From the NIST ThermoML archive (doi:10.1016/j.jct.2016.04.018)
Numbers after ± are expanded uncertainties.

Details: 298.15 K; 101.3 kPa; Crystal; flotation method

mass density: 1489.7 ± 2.5 kg/m3
SMILES: O=[N+]([O-])c1ccc(O)c2ncccc12 [5-nitro-8-quinolinol]
